Measurements from PMC4721923 (PLoS ONE, 2015).

T1: OCT3 (Homo sapiens, UniProt O75751)
T1 construct: expressed in transfected cells; host or cells: HEK293 (HEK-OCT3)
T1 sequence (O75751 1-556): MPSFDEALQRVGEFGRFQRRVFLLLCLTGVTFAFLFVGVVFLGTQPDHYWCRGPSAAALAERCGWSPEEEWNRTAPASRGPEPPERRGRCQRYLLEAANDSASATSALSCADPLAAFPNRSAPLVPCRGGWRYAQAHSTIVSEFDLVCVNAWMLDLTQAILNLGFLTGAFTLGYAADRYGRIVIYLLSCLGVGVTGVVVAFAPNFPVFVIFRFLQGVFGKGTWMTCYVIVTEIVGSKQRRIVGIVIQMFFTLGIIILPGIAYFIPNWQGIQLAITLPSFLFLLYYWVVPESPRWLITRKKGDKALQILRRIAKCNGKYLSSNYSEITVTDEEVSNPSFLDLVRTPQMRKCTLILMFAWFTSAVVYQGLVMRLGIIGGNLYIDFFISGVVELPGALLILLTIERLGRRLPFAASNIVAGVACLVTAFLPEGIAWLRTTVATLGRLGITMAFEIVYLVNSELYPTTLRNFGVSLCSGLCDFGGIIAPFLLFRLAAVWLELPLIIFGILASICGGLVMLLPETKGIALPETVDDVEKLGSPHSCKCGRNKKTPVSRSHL

T2: OCT1 (Homo sapiens, UniProt O15245)
T2 construct: containing the full length SLC22A1 cDNA (NM_003057) encoding the human OCT1 protein; expressed in transfected cells
T2 sequence (O15245 1-554): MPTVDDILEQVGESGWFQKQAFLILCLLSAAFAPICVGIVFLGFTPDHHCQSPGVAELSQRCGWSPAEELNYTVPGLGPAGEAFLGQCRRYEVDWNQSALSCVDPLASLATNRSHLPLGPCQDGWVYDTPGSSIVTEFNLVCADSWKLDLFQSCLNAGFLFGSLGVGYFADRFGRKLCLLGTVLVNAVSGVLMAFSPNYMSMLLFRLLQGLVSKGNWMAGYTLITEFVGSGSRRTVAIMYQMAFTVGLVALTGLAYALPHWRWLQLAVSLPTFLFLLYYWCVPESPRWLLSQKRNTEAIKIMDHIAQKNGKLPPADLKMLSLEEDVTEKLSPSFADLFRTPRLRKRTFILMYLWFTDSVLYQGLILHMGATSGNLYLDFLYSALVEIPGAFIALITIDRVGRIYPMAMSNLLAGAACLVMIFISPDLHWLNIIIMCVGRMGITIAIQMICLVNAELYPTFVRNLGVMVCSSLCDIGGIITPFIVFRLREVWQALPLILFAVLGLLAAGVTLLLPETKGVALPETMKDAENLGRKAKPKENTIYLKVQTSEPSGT

B1: OCT3 (Homo sapiens) (protein)
chain: T1 sequence (O75751 1-556)
notes: expressed in transfected cells; host or cells: HEK293 (HEK-OCT3)
B2: human OCT1 (Homo sapiens) (protein)
chain: T2 sequence (O15245 1-554)
notes: containing the full length SLC22A1 cDNA (NM_003057) encoding the human OCT1 protein; expressed in transfected cells

Legend:
[1] = target: T1, OCT3; test: Michaelis-Menten kinetics of ASP+ uptake, HEK-OCT3; format: cell-based
Method: (§1) The previously described fluorescent substrate of organic cation transporters, 4-(4-dimethylaminostyryl)-N-methylpyridinium (ASP^+), was used to determine the function of OCT1 and OCT3 by flow cytometry in the absence and the presence of bendamustine and selected bendamustine esters. HEK293 cells expressing the transporter of interest were trypsinized and washed twice with PBS, prior to re-suspension of 0.5 · 10^6 cells in 500 μL of PBS containing 2% (v/v) FCS. The cells were incubated with ASP^+ (100 μM stock solution in PBS containing 10% DMSO) for 5 minutes, allowing for cellular accumulation, and subsequently analyzed with a FACSCalibur flow cytometer. ASP^+ was excited at 488 nm and the fluorescence was measured using a 530/30 nm and a 585/42 band-pass filter. At least 1 · 10^4 single cells were analyzed by appropriate FSC/SSC gating.
(§2) Subsequently, two volumes of an ice-cold 200 μM solution of the standard inhibitor of OCT1 and OCT3, tetrapentyl ammonium (TPA), in PBS/FCS were added to one volume of cell suspension. The mixture was immediately analyzed. The mean fluorescence intensities (MFI) were calculated using FlowJo V10, and the difference between total (HEK-OCT1 or HEK-OCT3 cells) and unspecific (HEK-Co cells) uptake was plotted as specific uptake against the concentration of ASP^+. […] Km was calculated according to the Michaelis-Menten equation using GraphPad Prism 5.01.

[2] = target: T2, OCT1; test: Michaelis-Menten kinetics of ASP+ uptake, HEK-OCT1; format: cell-based
Method: as §1, §2

[3] = test system: U-937 cells (histiocytic lymphoma); test: Chemosensitivity assay (MTT-assay), U-937; format: cell-based, human; conditions: Homo sapiens, U-937, 96 h, 96 hours of incubation, mean ± SEM
Method: (§3) Depending on the characteristics of the cells, two different assays were performed. For adherently growing cells (HaCaT, HT-29, NCI-H460, SK-MEL-3, MG-63, Capan-1), cytotoxic and cytocidal effects were determined in the crystal violet assay, whereas for loosely adherent cells (LNCaP, SK-ES-1) and cells growing in suspension (HEL 92.1.7, Jurkat, U-937) the MTT-assay was used with minor modifications. In brief, 1.5 · 10^3 (HaCaT, HT-29, NCI-H460, SK-MEL-3, MG-63, Capan-1) or 5 · 10^3 (Jurkat, U-937, HEL92.1.7, LNCaP, SK-ES-1) cells per well were seeded into flat-bottom 96-well plates (Sarstedt, Nümbrecht, Germany). All compounds were used as solutions prepared in DMSO and tested at final concentrations (8 replicates per concentration) of 1, 3, 10, 30 and 50 μM. In case of the vehicle control and test compounds, the final DMSO concentration amounted to 0.1%. Absorbance was measured at 580 nm in a 96-well plate reader (GENios pro microplate reader, Tecan, Salzburg, Austria). Effects were quantified as previously described for both assays.

[4] = test system: SK-MEL-3 cells (malignant melanoma); test: Chemosensitivity assay (crystal violet assay), SK-MEL-3; format: cell-based, human; conditions: Homo sapiens, SK-MEL3, 96 hours of incubation, mean ± SEM, read-out: IC50
Method: as §3

[5] = test system: Jurkat cells (acute T-cell leukemia); test: Chemosensitivity assay (MTT-assay), Jurkat; format: cell-based, human; conditions: Homo sapiens, 96 h, 96 hours of incubation, mean ± SEM
Method: as §3

[6] = test system: Capan-1 cells (pancreatic adenocarcinoma); test: Chemosensitivity assay (crystal violet assay), Capan-1; format: cell-based, human; conditions: Homo sapiens, CAPAN-1, 96 h, 96 hours of incubation, mean ± SEM
Method: as §3

[7] = test system: LNCaP cells (prostate cancer); test: Chemosensitivity assay (MTT-assay), LNCaP; format: cell-based, human; conditions: Homo sapiens, 96 hours of incubation, mean ± SEM, read-out: IC50
Method: as §3

[8] = test system: SK-ES-1 cells (Ewing's sarcoma); test: Chemosensitivity assay (MTT-assay), SK-ES-1; format: cell-based, human; conditions: 96 hours of incubation, mean ± SEM
Method: as §3

[9] = test system: MG-63 cells (osteosarcoma); test: Chemosensitivity assay (crystal violet assay), MG-63; format: cell-based, human; conditions: Homo sapiens, MG-63, 96 h, 96 hours of incubation, crystal violet assay, mean ± SEM
Method: as §3

[10] = test system: HT-29 cells (colorectal adenocarcinoma); test: Chemosensitivity assay (crystal violet assay), HT-29; format: cell-based, human; conditions: Homo sapiens, 96 hours of incubation, mean ± SEM, read-out: IC50
Method: as §3

[11] = test system: NCI-H460 cells (large cell lung cancer); test: Chemosensitivity assay (crystal violet assay), NCI-H460; format: cell-based, human; conditions: Homo sapiens, 96 hours of incubation, mean ± SEM, read-out: IC50
Method: as §3

[12] = test system: HEL 92.1.7 cells (erythroleukemia); test: Chemosensitivity assay (MTT-assay), HEL 92.1.7; format: cell-based, human; conditions: Homo sapiens, HEL 92.1.7, 96 h, 96 hours of incubation, mean ± SEM
Method: as §3

[13] = substrate: CN(C)c1ccc(/C=C/c2cc[n+](C)cc2)cc1; test: Michaelis-Menten kinetics of ASP+ uptake, HEK-OCT3; format: cell-based, human; conditions: other: HEK-OCT3; substrate uptake, flow cytometry; 37.0 °C
Method: as §1, §2

[14] = substrate: CN(C)c1ccc(/C=C/c2cc[n+](C)cc2)cc1; test: Michaelis-Menten kinetics of ASP+ uptake, HEK-OCT1; format: cell-based, human; conditions: other: HEK-OCT1; substrate uptake, flow cytometry; 37.0 °C
Method: as §1, §2

| Molecule | vmax (maximal uptake rate) [1] | vmax (maximal uptake rate) [2] | IC50 [3] | IC50 [4] | IC50 [5] | IC50 [6] | IC50 [7] | IC50 [8] | IC50 ([8]; Homo sapiens, SK-ES1, 96 h) | IC50 [9] | IC50 [10] | IC50 [11] | IC50 [12] | Km [13] | Km [14] |
| --- | --- | --- | --- | --- | --- | --- | --- | --- | --- | --- | --- | --- | --- | --- | --- |
| CN(C)c1ccc(C=Cc2cc[n+](C)cc2)cc1.[I-] [ASP^+, 4-[4-(dimethylamino)styryl]-N-methylpyridinium iodide] | 5321 ± 89 MFI/(10^4 cells · min) | 2808 ± 78 MFI/(10^4 cells · min) | – | – | – | – | – | – | – | – | – | – | – | – | – |
| CCOC(=O)CCCc1nc2cc(N(CCCl)CCCl)ccc2n1C [Compound 3] | – | – | 1900 ± 10 nM | 21700 ± 4100 nM | 3800 ± 40 nM | 1000 ± 10 nM | 1500 ± 100 nM | 180 ± 10 nM | ~200 nM | 2100 ± 60 nM | 10000 ± 100 nM | 4800 ± 100 nM | 2900 ± 200 nM | – | – |
| Cn1c(CCCC(=O)OCCN2CCCCC2)nc2cc(N(CCCl)CCCl)ccc21 [Compound 6] | – | – | 1100 ± 200 nM | 1240 ± 100 nM | 830 ± 10 nM | 170 ± 10 nM | 750 ± 30 nM | – | 190 ± 10 nM | 530 ± 10 nM | 1700 ± 100 nM | 1200 ± 100 nM | 1300 ± 100 nM | – | – |
| CN1CCN(CCOC(=O)CCCc2nc3cc(N(CCCl)CCCl)ccc3n2C)CC1 [Compound 7] | – | – | 1300 ± 300 nM | 1000 ± 270 nM | 900 ± 30 nM | 250 ± 20 nM | 930 ± 120 nM | – | 190 ± 30 nM | 550 ± 10 nM | 2400 ± 100 nM | 1200 ± 100 nM | 1700 ± 100 nM | – | – |
| B1 | – | – | – | – | – | – | – | – | – | – | – | – | – | 2.7 ± 0.1 µM | – |
| B2 | – | – | – | – | – | – | – | – | – | – | – | – | – | – | 3.1 ± 0.1 µM |
